One assay has as its target T1, IL-17A/A (Homo sapiens, UniProt Q16552).
T1 construct: purchased Genscript Z03228
T1 sequence (Q16552 24-155): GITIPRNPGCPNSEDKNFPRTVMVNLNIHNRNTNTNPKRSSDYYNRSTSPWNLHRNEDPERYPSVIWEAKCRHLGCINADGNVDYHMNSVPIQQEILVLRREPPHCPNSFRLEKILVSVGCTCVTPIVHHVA
Put plainly: IL-17A/A HEK-Blue Cell Assay. Type of assay: cell-based. As to conditions: HEK-Blue IL-17A reporter cell line, SEAP readout at A630, 20 hours incubation with IL-17A/A; top concentration 10 uM, 1 uM or 0.3 uM.
As to `CCC(=O)N[C@H](Cc1ccc(NC(=O)[C@H](CCC2CCCCC2)NC(=O)c2ccnn2CC)c(F)c1)C(=O)N1CCN(C)CC1` [Compound 729], the “IL-17A/A inhibition (pIC50)” value is “X2b (compounds were evaluated up to 1 uM and inhibited activity at 1 uM by less than 20%)”.
Still for that read-out and setting: the result for `CCC(=O)N[C@H](Cc1ccc(NC(=O)[C@H](Cc2ccc(Cl)cc2)NC(=O)c2ccnn2CC)c(F)c1)C(=O)N1CCN(C)CC1` [Compound 722] reads “X2b (compounds were evaluated up to 1 uM and inhibited activity at 1 uM by less than 20%)”; that for `CCC(=O)N[C@@H](C(=O)N1CCN(C)CC1)[C@@H](C)c1ccc(NC(=O)C(NC(=O)c2nonc2CC)C(C)C2CCC(C)CC2)c(F)c1` (single isomer, unassigned) [Compound 613], “X2b (compounds were evaluated up to 1 uM and inhibited activity at 1 uM by less than 20%)”.
Consider `CCC(=O)N[C@H](Cc1ccc(NC(=O)[C@@H](NC(=O)c2ccnn2CC)C2CCCCC2)c(F)c1)C(=O)N1C[C@@H]2C[C@H]1CN2C` [Compound 696], for which the “IL-17A/A inhibition (pIC50)” value was “X2a (compounds were evaluated up to 1 uM and did not inhibit activity by >80%, however they showed some activity at 1 uM (less than 80% and more than 20%))”.
`CCC(=O)N[C@H](Cc1ccc(NC(=O)[C@H](Cc2ccc(C(F)(F)F)cc2)NC(=O)c2ccnn2CC)c(F)c1)C(=O)N1CCN(C)CC1` [Compound 723]: the “IL-17A/A inhibition (pIC50)” value is “X2b (compounds were evaluated up to 1 uM and inhibited activity at 1 uM by less than 20%)”.

The assay is the same for the next values; noted with them: HEK-Blue IL-17A reporter cell line, SEAP readout at A630, 20 hours incubation with IL-17A/A; top concentration 10 uM, 1 uM or 0.3 uM; read-out: IL-17A/A inhibition (pIC50) (converted).
For the molecule `CCn1nccc1C(=O)N[C@H](C(=O)Nc1ccc([C@H](C)[C@@H](NC(=O)[C@@H]2CCCO2)C(=O)N2CCN(C)CC2)cc1F)[C@H]1CC[C@H](C)CC1` [Compound 477], the IC50 is 10 to 100 nM.
Same read-out and setting: then `CCn1nccc1C(=O)N[C@H](C(=O)Nc1ccc(C[C@@H](NC(=O)c2ccnn2-c2ccc(=O)[nH]c2)C(=O)N2CCN(C)CC2)cc1F)C1CCCCC1` [Compound 623], with 100 to 10000 nM; and `CCC(=O)N[C@H](Cc1ccc(NC(=O)[C@@H](NC(=O)C(F)(F)c2ccccc2)C2CCCCC2)c(F)c1)C(=O)N1CCN(C)CC1` [Compound 204], with 100 to 10000 nM.
On to `CCC(=O)N[C@@H](C(=O)N1CCS(=O)(=O)CC1)[C@@H](C)c1ccc(NC(=O)[C@@H](NC(=O)C(F)(F)c2cccc(C#N)c2)C2CCCCC2)c(F)c1` [Compound 365], for which the IC50 is 10 to 100 nM.
Still for that read-out and setting: the result for `CCC(=O)N[C@@H](C(=O)N1CCN(C)CC1)[C@@H](C)c1ccc(NC(=O)[C@@H](NC(=O)C(F)(F)c2cccc(C#N)c2)C2CCC(F)(F)CC2)c(F)c1` [Compound 263] reads below 10 nM.
On the same count and under the same terms, the result for `CCn1nccc1C(=O)N[C@H](C(=O)Nc1ccc([C@H](C)[C@@H](NS(=O)(=O)CC)C(=O)N2CCN(C)CC2)cc1F)C1CCCCC1` [Compound 313] reads 10 to 100 nM.
`CCC(=O)N[C@@H](C(=O)N1CCN(C)CC1)[C@@H](C)c1ccc(NC(=O)[C@@H](NC(=O)c2ccnn2CC)C2CCCCCC2)cc1` [Compound 297]: the IC50 was 10 to 100 nM.
As to `CCC(=O)N[C@H](Cc1ccc(NC(=O)[C@@H](NC(=O)c2ccnn2CC)C2CCCCC2)c(F)c1)C(=O)N1CCN(Cc2ccccc2)CC1` [Compound 325], the IC50 is 10 to 100 nM.
Take `CCC(=O)N[C@H](Cc1ccc(NC(=O)[C@@H](NC(=O)c2cncn2CC)C2CCCCC2)c(F)c1)C(=O)N1CCN(C)CC1` [Compound 761]: the IC50 was 100 to 10000 nM.
As for `CCC(=O)N[C@@H](C(=O)N1CCN(C)CC1)[C@@H](C)c1ccc(NC(=O)[C@@H](NC(=O)c2ccoc2C(C)C)C2CCCCCC2)c(F)c1` [Compound 272], the IC50 was below 10 nM.
With `CCC(=O)N[C@@H](C(=O)N1CCN(C)CC1)[C@@H](C)c1ccc(NC(=O)[C@@H](NC(=O)c2coc3ccncc23)C2CCCCC2)c(F)c1` [Compound 247], the IC50 is 10 to 100 nM.
Turning to `CCc1nonc1C(=O)N[C@H](C(=O)Nc1ccc([C@H](C)[C@@H](NC(=O)c2cnns2)C(=O)N2CCN(C)CC2)cc1F)[C@H]1CC[C@H](C)CC1` [Compound 408], the IC50 is below 10 nM.
With `CCC(=O)N[C@H](Cc1ccc(NC(=O)[C@@H](NC(=O)c2ccnn2C(C)C)C2CCCCC2)c(F)c1)C(=O)N1CCN(C)CC1` [Compound 637], the IC50 was 100 to 10000 nM.
For `Cc1nonc1C(=O)N[C@H](C(=O)Nc1ccc([C@H](C)[C@@H](NC(=O)c2cnns2)C(=O)N2CCN(C)CC2)cc1F)[C@H]1CC[C@H](C)CC1` [Compound 583], the IC50 was below 10 nM.
Take `CCC(=O)N[C@@H](C(=O)N1CCN(C)CC1)[C@@H](C)c1ccc(NC(=O)[C@@H](NC(=O)c2conc2CC)[C@H]2CC[C@H](C)CC2)c(F)c1` [Compound 264]: the IC50 is 10 to 100 nM.
For the molecule `CCC(=O)N[C@@H](C(=O)N1CCC(CC(=O)OC(C)(C)C)CC1)[C@@H](C)c1ccc(NC(=O)[C@@H](NC(=O)c2ccnn2CC)[C@H]2CC[C@H](C)CC2)c(F)c1` [Compound 421], the IC50 was 10 to 100 nM.
Still for that read-out and setting: the result for `CCn1nccc1C(=O)N[C@H](C(=O)Nc1ccc(C[C@@H](NC(=O)CC2CC2)C(=O)N2CCN(C)CC2)cc1F)C1CCCCC1` [Compound 650] reads 100 to 10000 nM; that for `CCC(=O)N[C@H](Cc1ccc(NC(=O)[C@@H](NC(=O)C(F)(F)c2cccc(C#N)c2)C2CCCCC2)c(F)c1)C(=O)N1CCN(C)CC1` [Compound 302], 10 to 100 nM; that for `CCn1nccc1C(=O)N[C@H](C(=O)Nc1ccc([C@H](C)[C@@H](NC(=O)c2cn[nH]c2)C(=O)N2CCN(C)CC2)cc1F)C1CCCCC1` [Compound 677], 100 to 10000 nM.
Turning to `CCc1nonc1C(=O)N[C@H](C(=O)Nc1ccc([C@H](C)[C@@H](NC(=O)C(C)C)C(=O)N2CCN(C)CC2)cc1F)[C@H]1CC[C@H](C)CC1` [Compound 494], the IC50 is below 10 nM.
Same read-out and setting: then `CCC(=O)N[C@@H](C(=O)N1C[C@@H](C)N(C)[C@H](C)C1)[C@@H](C)c1ccc(NC(=O)[C@@H](NC(=O)c2nonc2CC)[C@H]2CC[C@H](C)CC2)c(F)c1` [Compound 451], with below 10 nM.
With `CCn1nccc1C(=O)N[C@H](C(=O)Nc1ccc([C@H](C)[C@@H](NC(=O)c2cc(C)on2)C(=O)N2CCN(C)CC2)cc1F)C1CCCCC1` [Compound 687], the IC50 is 100 to 10000 nM.
Turning to `CCC(=O)N[C@H](Cc1ccc(NC(=O)[C@@H](NC(=O)c2ccnn2CC)C2CCCCC2)c(F)c1)C(=O)N1CCC(C)(O)CC1` [Compound 382], the IC50 was 10 to 100 nM.
Consider `CCn1nccc1C(=O)N[C@H](C(=O)Nc1ccc([C@H](C)[C@@H](NC(=O)CC#N)C(=O)N2CCN(C)CC2)cc1F)C1CCCCC1` [Compound 665], for which the IC50 was 100 to 10000 nM.
Same read-out and setting: then `CCn1nccc1C(=O)N[C@H](C(=O)Nc1ccc([C@H](C)[C@@H](NC(=O)COC)C(=O)N2CCN(C)CC2)cc1F)[C@H]1CC[C@H](C)CC1` [Compound 478], with 10 to 100 nM; and `CC(C)NC(=O)N[C@@H](C(=O)N1CCN(C)CC1)[C@@H](C)c1ccc(NC(=O)[C@@H](NC(=O)c2ccnn2C(C)C)C2CCCCCC2)c(F)c1` [Compound 328], with 10 to 100 nM; and `CCn1nccc1C(=O)N[C@H](C(=O)Nc1ccc([C@H](C)[C@@H](NC(=O)C(C)(F)F)C(=O)N2CCN(C)[C@@H](C)C2)cc1F)[C@H]1CC[C@H](C)CC1` [Compound 479], with below 10 nM.
As to `CCC(=O)N[C@@H](C(=O)N1CCN(C)CC1)[C@@H](C)c1ccc(NC(=O)[C@@H](NC(=O)C(F)(F)C23CC(C2)C3)C2CCCCC2)c(F)c1` [Compound 625], the IC50 was 100 to 10000 nM.

These data come from patent publication US12421212B2, “Substituted benzenecarboxamides as IL-17A modulators” (DiCE Alpha, Inc., priority 2019, dated 2025).
